Among the data in ChEMBL document CHEMBL1146968, “Novel skeleton terpenes from Celastrus hypoleucus with anti-tumor activities” (Bioorg Med Chem Lett, 2006) are IC50 values, retold here.

Common to all, as to type: functional, cell-based
The test system of assay [1] is K562. Put plainly: Antitumor activity against human K562 cell line by MTT assay. For orientation: Tetrazolium assays rely on reduction of a dye to a coloured formazan, in cell work by metabolically active cells.
The subject of assay [2] is SMMC-7721. As to the kind of experiment: Antitumor activity against human SMMC7721 cell line by MTT assay.
Assay [3] concerns Bcap37. As to the kind of experiment: Antitumor activity against human Bcap37 cell line by MTT assay.
Assay [4] concerns RKO. As to the kind of experiment: Antitumor activity against human RKO cell line by MTT assay.

Structures are written as SMILES. Values after ≈ are worked out from the molar mass of the structure shown.

Turning to `CC1=C(C)[C@@H]2CC(=O)c3cc(O)c(O)cc3[C@@]2(C)CC1` [CELAHYPODIOL], the half-maximal inhibitory concentration (IC50) (in general, the point on the concentration scale where inhibition reaches its midpoint) in assay [1] was found to be 16.2 µg/mL (≈ 59.5 µM); in assay [2], 38 µg/mL (≈ 140 µM); in assay [3], 24.4 µg/mL (≈ 89.7 µM); in assay [4], 27.2 µg/mL (≈ 99.7 µM).
On to `CO[C@@]12[C@H](COC(N)=O)C3=C(C(=O)C(C)=C(N)C3=O)N1C[C@@H]1N[C@@H]12` [MITOMYCIN], for which the 50% inhibitory concentration (IC50) was 3.35 µg/mL (≈ 10 µM) in assay [1], 2.44 µg/mL (≈ 7.3 µM) in assay [2], 2.33 µg/mL (≈ 6.97 µM) in assay [3] and 1.75 µg/mL (≈ 5.23 µM) in assay [4].
In the case of `CC1(C)CC[C@]2(C)CC[C@]3(C)C(=CC[C@@H]4[C@@]5(C)CC[C@H](O)C(C)(C)[C@@H]5[C@@H](O)C[C@]43C)C2C1` (some centres not stated), the half-maximal inhibitory concentration (IC50) in assay [1] came to 11.2 µg/mL (≈ 25.3 µM); in assay [2], 22.7 µg/mL (≈ 51.3 µM); in assay [3], 14.6 µg/mL (≈ 32.9 µM); in assay [4], 12.2 µg/mL (≈ 27.6 µM).
